From ChEMBL document CHEMBL1201862, “PubChem BioAssay data set” (2004)
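Where inhibition never reached the appropriate level, the endpoint shown equals the highest concentration tested. Otherwise, values were interpolated linearly from a five-concentration, 48-hour dose response in 96-well plates. GI50: concentration for 50% inhibition of growth.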 The source made the active and inactive calls. Rule as the data show it: active = GI50 up to about 1.1 µM and inactive = higher.

Tests used:
Experiment in all cases: NCI anticancer screen, dose series, 48 h
[1] = system: IGROV-1
[2] = system: COLO 205
[3] = system: BT-549
[4] = system: OVCAR-3
[5] = system: OVCAR-8
[6] = system: ACHN
[7] = system: HOP-62
[8] = system: SNB-75
[9] = system: SW-620
[10] = system: 786-0
[11] = system: HOP-92
[12] = system: A498
[13] = system: SK-MEL-28
[14] = system: M14
[15] = system: MOLT-4
[16] = system: MDA-MB-231
[17] = system: T47D
[18] = system: HL-60
[19] = system: RXF 393

Measured: GI50

CC12O[C@]3([C@H](C(=O)N4CCOC43C)[C@H]1Cl)[C@H]1O[C@H]12 (some centres undefined)
inactive: [1] > 100 µM | [2] 24.6 µM | [3] > 100 µM | [4] > 100 µM | [5] > 100 µM | [6] > 100 µM | [7] > 100 µM | [8] > 100 µM | [9] > 100 µM | [10] > 100 µM | [11] > 100 µM | [12] > 100 µM | [13] > 100 µM | [14] > 100 µM | [15] > 100 µM | [16] > 100 µM | [17] > 100 µM | [18] > 100 µM

CCOC(=O)C1(C)CCc2sc(N)c(C#N)c21 (centres undefined)
inactive: [1] > 100 µM | [2] > 100 µM | [3] > 100 µM | [19] > 100 µM | [5] > 100 µM | [6] > 100 µM | [7] > 100 µM | [8] > 100 µM | [9] > 100 µM | [10] > 100 µM | [11] > 100 µM | [12] > 100 µM | [13] > 100 µM | [14] > 100 µM | [15] > 100 µM | [16] > 100 µM | [17] > 100 µM | [18] > 100 µM

C[C@@H]1C[C@@]2(O[C@@H]2C)C(=O)O[C@@H]2CCN3CC=C(COC(=O)[C@]1(C)O)[C@H]23
inactive: [1] > 100 µM | [2] > 100 µM | [3] > 100 µM | [4] > 100 µM | [5] > 100 µM | [6] > 100 µM | [8] > 100 µM | [9] > 100 µM | [10] > 100 µM | [11] 10.7 µM | [12] > 100 µM | [13] > 100 µM | [14] > 100 µM | [15] > 100 µM | [16] > 100 µM | [17] > 100 µM | [18] > 100 µM

CCCCOC(=O)c1cc(C(=CCC[C@H]2CC[C@@]3(C)[C@@H](CC[C@@H]4[C@@H]3CC[C@]3(C)[C@@H](C(C)CCCC(C)C)CC[C@@H]43)C2)c2cc(Cl)c(O)c(C(=O)OCCCC)c2)cc(Cl)c1O (some centres undefined)
inactive: [1] > 50 µM | [2] > 50 µM | [3] > 50 µM | [4] > 50 µM | [5] > 50 µM | [7] > 50 µM | [8] > 50 µM | [9] > 50 µM | [10] > 50 µM | [11] > 50 µM | [12] > 50 µM | [15] > 5 µM | [16] > 50 µM | [17] > 50 µM | [18] > 50 µM

CC(=O)c1c(O)cc(O)c(-c2c(C)cc(O)c3c2C(=O)c2cccc(O)c2C3=O)c1O
inactive: [1] 11.6 µM | [3] 17.5 µM | [4] 17.6 µM | [5] 14.7 µM | [6] 12.9 µM | [7] 14.9 µM | [8] 15.2 µM | [9] 18.7 µM | [10] 17.1 µM | [11] 11.8 µM | [12] 15.6 µM | [13] 20.7 µM | [14] 20.3 µM | [15] 10.8 µM | [16] 25.1 µM | [17] 4.95 µM | [18] 23.2 µM

CN(/N=C/c1ccccc1O)c1ccc2ccccc2n1
inactive: [1] 11.3 µM | [2] 56.1 µM | [3] 23.6 µM | [19] 30.8 µM | [4] 19.5 µM | [5] 33.8 µM | [6] 25.4 µM | [7] 16.4 µM | [9] 42.3 µM | [10] 17.7 µM | [11] 35.3 µM | [12] 20 µM | [13] 65.9 µM | [14] 27.1 µM | [15] 24 µM | [16] 29.8 µM | [17] 13.5 µM | [18] 81.7 µM

CC1=NN(C(=O)CC(=O)Nc2cccc(Cl)c2)C(=O)C1/N=N\c1ccc(S(=O)(=O)c2ccc(/N=N/C3C(=O)N(C(=O)CC(=O)Nc4cccc(Cl)c4)N=C3C)cc2)cc1 (centres undefined)
inactive: [1] > 100 µM | [2] > 100 µM | [3] > 100 µM | [19] > 100 µM | [4] > 100 µM | [5] > 100 µM | [6] > 100 µM | [7] > 100 µM | [8] > 100 µM | [9] > 100 µM | [10] > 100 µM | [11] > 100 µM | [13] > 100 µM | [14] > 100 µM | [15] > 100 µM | [16] 16.1 µM | [17] > 100 µM | [18] > 100 µM

CCCCCCCCCCCC1=C(O)C(=O)C(CC2=C(O)C(=O)C(CCCCCCCCCCC)=C(O)C2=O)=C(O)C1=O
inactive: [1] > 100 µM | [2] > 100 µM | [3] > 100 µM | [19] 3.19 µM | [5] 29.8 µM | [6] 76 µM | [8] 14.9 µM | [9] > 100 µM | [10] 59.6 µM | [11] 16.3 µM | [12] 52.2 µM | [13] > 100 µM | [14] > 100 µM | [15] > 100 µM | [16] 28.6 µM | [17] > 100 µM | [18] > 10 µM

O=C(O)c1ccccc1NC(=S)c1ccccc1
inactive: [1] 25.1 µM | [2] 39.1 µM | [3] 33 µM | [19] 51.9 µM | [4] 34.4 µM | [5] 33.9 µM | [6] 24.7 µM | [7] 50.4 µM | [9] 46.5 µM | [10] 47.4 µM | [11] 11.8 µM | [12] 61.9 µM | [14] 70.5 µM | [15] 67.5 µM | [16] 60.5 µM | [17] 34.2 µM | [18] 34 µM

CNC(=O)c1nn[nH]c1Sc1c([N+](=O)[O-])ncn1C
inactive: [1] > 100 µM | [2] > 100 µM | [3] > 100 µM | [19] > 100 µM | [4] > 100 µM | [5] > 100 µM | [6] > 100 µM | [7] > 100 µM | [9] > 100 µM | [10] > 100 µM | [11] > 100 µM | [12] > 100 µM | [13] > 100 µM | [14] > 100 µM | [15] > 100 µM | [16] > 100 µM | [17] > 100 µM

CCOC(=O)/C(=C\c1ccc(CO)o1)P(=O)(OCC)OCC
inactive: [1] 37.2 µM | [2] 23 µM | [3] 20.1 µM | [19] 34.3 µM | [4] 18.9 µM | [5] > 10 µM | [6] 61.1 µM | [7] 45.8 µM | [8] 33 µM | [9] 27.4 µM | [10] 19.7 µM | [11] 23.7 µM | [12] 55.3 µM | [13] 30.7 µM | [14] 31.9 µM | [15] 56.8 µM | [16] 31.7 µM | [17] 91.2 µM

COC(=O)/C=C1\C(CO[Si](C)(C)C(C)(C)C)OC(n2ccc(=O)[nH]c2=O)C1O (centres undefined)
inactive: [1] 20 µM | [2] 4.26 µM | [3] 18.7 µM | [19] 9.84 µM | [4] 21.6 µM | [5] 8.95 µM | [6] 12.6 µM | [7] 13.2 µM | [8] 12.1 µM | [9] 9.73 µM | [10] 6.04 µM | [11] 15.2 µM | [12] 17.5 µM | [13] 6.25 µM | [14] 17.5 µM | [15] 8.49 µM | [16] 34.5 µM | [17] 3.63 µM

CSc1scc2c1/C(=N/NC(N)=O)CCC2
inactive: [2] > 100 µM | [3] 80 µM | [4] > 100 µM | [5] > 100 µM | [6] > 100 µM | [7] > 100 µM | [8] 36.7 µM | [9] > 100 µM | [10] > 100 µM | [11] 2.34 µM | [12] 39.7 µM | [13] > 100 µM | [14] > 100 µM | [15] 58.1 µM | [16] > 100 µM | [17] > 100 µM

c1cncc(C2(c3cc4ccccc4[nH]3)COCO2)c1 (centres undefined)
inactive: [1] > 100 µM | [2] 19.1 µM | [3] > 100 µM | [19] > 100 µM | [4] > 100 µM | [5] > 100 µM | [6] 77.3 µM | [7] > 100 µM | [8] > 100 µM | [9] > 100 µM | [10] > 100 µM | [11] > 100 µM | [13] > 100 µM | [14] > 100 µM | [15] 97.9 µM | [16] > 100 µM | [17] > 100 µM | [18] 32.7 µM

COc1cc([C@@H]2c3cc4c(cc3[C@@H](OC3OC5COC(C)OC5C(OC(=O)CN5CCN(C)CC5)C3OC(=O)CN3CCN(C)CC3)C3COC(=O)[C@@H]32)OCO4)cc(OC)c1OC(=O)CN1CCN(C)CC1 (some centres undefined)
inactive: [1] 72.3 µM | [2] > 100 µM | [3] 34.4 µM | [19] > 100 µM | [4] > 100 µM | [5] 60.8 µM | [6] 54.5 µM | [7] 40.2 µM | [8] 28.5 µM | [9] 41.8 µM | [10] 21.9 µM | [11] > 100 µM | [14] 55.8 µM | [15] 2.49 µM | [16] 54.3 µM | [17] 71.1 µM | [18] 11.5 µM
